Reference: patent US9895357B2, “Compositions, methods and kits for reducing lipid levels” (NuSirt Sciences, Inc., priority 2013, dated 2018)

How the values were obtained:
Sirt1 [1] = test system: Sirt1
Protocol: C2C12 mouse myoblasts (American Type Culture Collection) were plated at a density of 8000 cells/cm^2 (10 cm^2 dish) and grown in Dulbecco's modified eagle's medium (DMEM) containing 10% fetal bovine serum (FBS), and antibiotics (growth medium) at 37° C. in 5% CO2. For differentiation of C2C12 cells, cells were grown to 100% confluence, transferred to differentiation medium (DMEM with 2% horse serum and 1% penicillin-streptomycin), and fed with fresh differentiation medium every day until myotubes were fully formed (3 days).
(§1) Total 35 μg of protein from the cell lysate was resolved on 10% Tris/HCL polyacrylamide gels (Criterion precast gel, Bio-Rad Laboratories, Hercules, Calif.), transferred to PVDF membranes, incubated in blocking buffer (3% BSA in TBS), incubated with primary antibody, washed and incubated with secondary horseradish peroxidase-conjugated antibody.

AMPK [2] = test system: AMPK
Protocol: 3T3-L1 preadipocytes (American Type Culture Collection) were plated at a density of 8000 cells/cm2 (10 cm2 dish) and grown in Dulbecco's modified eagle's medium (DMEM) containing 10% fetal bovine serum (FBS), and antibiotics (growth medium) at 37° C. in 5% CO2. […] Preadipocytes were maintained in this differentiation medium for 3 days and subsequently cultured in growth medium. Cultures were re-fed every 2-3 days to allow >90% cells to reach fully differentiation before conducting chemical treatment.
as §1, with “Western blotting was performed with antibodies against AMPK and Phospho-AMPKα (Thr172) obtained from Cell Signaling (Danvers, Mass.). […] Total” for “Total”, “30” for “35”, “antibody (P-AMPK),” for “antibody,”

[3] = test system: LDL receptor knockout (LDLRKO) mice; conditions: NA alone 10 g/kg diet = group (e); NA 250 mg + Leu 24 g/kg diet; groups (a)-(d) as
Protocol: All chemicals are purchased from Sigma.
The serum/plasma levels of triglyceride, cholesterol, LDL and HDL are measured. Cutaneous vasodilation is measured by laser-Doppler flowmeter.

[4] = test system: Patients pre-diagnosed with hyperlipidemia; conditions: NA alone 3000 mg = group (e); NA 50 mg + Leu 1135 mg; groups (a)-(d) as
Protocol: Patients that are pre-diagnosed with hyperlipidemia are admitted for the randomized and double blind study. […] The treatments are administered orally twice a day, for 60 days continuously.
Blood samples of the patients in all groups are obtained from at day 0, 30 and 60 after the administration. The serum/plasma levels of triglyceride, cholesterol, LDL and HDL are measured. Cutaneous vasodilation is measured by laser-Doppler flowmeter and the discomfort level described by the patients.

[5] = test system: LDL receptor knockout (LDLRKO) mice; assay: Example 7: plasma total cholesterol, cholesterol esters and triglycerides in LDLRKO mice on western diet; type: in vivo; conditions: four weeks
Protocol: (§2) The mice were provided free access to an atherogenic western diet (WD) containing 0.21% cholesterol (by weight) and 40% calories from fat and water for 4 weeks prior to treatment. […] The treatments were administered for eight weeks continuously.
Blood samples of the mice in all groups were obtained from tails of the mice at following four and eight weeks of administration. The serum/plasma levels of triglyceride, total cholesterol and cholesterol esters were measured. Following treatment, food was removed for four hours and the animals were euthanized.
Blood was collected into EDTA-coated tubes to analyze plasma lipid and cholesterol profiles. Plasma total cholesterol (TC, Pointe Scientific, Canton, Mich.), free cholesterol (FC, Wako, Richmond, Va.) and triglyceride (TG, Wako, Richmond, Va.) concentrations were measured using enzymatic assays according to manufacturer's instructions. Cholesterol ester (CE) was calculated as the difference between TC and FC.

[6] = test system: LDL receptor knockout (LDLRKO) mice; assay: Example 7: atherosclerotic lesion area and Oil Red O positive area in LDLRKO mice; type: in vivo; conditions: eight weeks
Protocol: as §2
To assess atherosclerosis, the circulatory system was perfused following euthanasia with phosphate-buffered saline (PBS) before removing the heart and aorta. The upper one-third of the heart was dissected and embedded in Optimal Cutting Temperature Compound (Sakura Tissue-Tek, Torrance, Calif.), frozen, and stored at −80° C. Blocks were serially cut at 8 μm intervals and stained with hematoxylin and 0.5% Oil Red O (Sigma-Aldrich) to evaluate aortic sinus atherosclerotic intimal area. Atherosclerotic lesion area and Oil Red O positive area were quantified using Image-Pro Plus software (Media Cybemetics, Bethesda, Md.). Whole aorta (from sinotubular junction to iliac bifurcate) was dissected and fixed in 10% formalin, and the adventitia was cleaned. Aortas were opened along the longitudinal axis and pinned onto black silicon elastomer (Rubber-Cal, Santa Ana, Calif.) for the quantification of atherosclerotic lesion area. The percentage of total aortic surface covered with atherosclerotic lesions was quantified by Image-Pro Plus software (Media Cybemetics, Bethesda, Md.) and used to determine the total lesion area.

[7] = test system: LDL receptor knockout (LDLRKO) mice; assay: Example 7: aortic macrophage infiltration (CD68 positive area) in LDLRKO mice; type: in vivo; conditions: eight weeks
Protocol: as §2
To assess macrophage infiltration, Sections of aortic sinus were immuno-stained with rat monoclonal antibody against macrophage-specific CD68 (Clone FA11, 1:75, AbD Serotec, Raleigh, N.C.) followed by staining with alkaline phosphatase-conjugated mouse anti-rat (for CD68, 1:50) secondary antibodies (Jackson ImmunoResearch laboratories, West Grove, Pa.). Control slides contain no primary antibody. The CD68-positive areas were analyzed using Image-Pro Plus software (Media Cybemetics, Bethesda, Md.).

C. elegans = assay: Lifespan in C. elegans; type: in vivo, Caenorhabditis elegans; conditions: leucine 0.5 mM, nicotinic acid 10 nM; basal conditions
Protocol: Eggs were hatched on a starved plate overnight. […] To study lifespan, 50 young adult worms were placed on NGM agar plates seeded with E. coli strain OP-50 (=day 1 of study). All treatments were added with the indicated concentrations to E. coli the agar plates. […] The worms were maintained at 20° C. throughout the duration of the study. Worms were transferred to new plates daily to eliminate progeny. […] The study was continued until the last animal was dead. Data were analyzed via Kaplan-Meier survival curves using Prism 6 (GraphPad Software) and statistical significance was determined by the Log-rank (Mantel-Cox) test.

[8] = oral dosing of about 3,000 mg; cited from earlier work
Sirt1 [9] = conditions: 0.5 mM for leucine and 5 μM for HMB; previously shown; cited from earlier work
AMPK [10] = conditions: 0.5 mM for leucine and 5 μM for HMB; previously shown; cited from earlier work
[11] = leucine 24 g/kg diet alone, or with nicotinic acid 50 or 250 mg/kg diet, compared with NA 1,000 mg/kg diet
[12] = leucine 24 g/kg diet alone, or with nicotinic acid 50 mg/kg diet, compared with NA 1,000 mg/kg diet

Row | Compound | effect on Sirt1 levels (Sirt1 [1]; C2C12 myotubes, 24 hours, nicotinic acid 10 nM alone or with 0.5 mM leucine) | concentrations of nicotinic acid alone found to exert no effect (Sirt1 [1]; dose-response study, C2C12 cells) | AMPK activation (P-AMPK/AMPK) (AMPK [2]; differentiated 3T3-L1 adipocytes, 24 hours, nicotinic acid 10 nM, leucine 0.5 mM, resveratrol 200 nM) | concentrations of nicotinic acid alone found to exert no effect (AMPK [2]; dose-response study, 3T3-L1 cells) | cutaneous vasodilation [3] | cutaneous vasodilation and patient complaints [4] | decrease in plasma total cholesterol ([5]; nicotinic acid 1,000 mg/kg diet added to western diet, p<0.01) | decrease in plasma cholesterol esters ([5]; nicotinic acid 1,000 mg/kg diet, CE calculated as TC minus FC, p<0.002) | decrease in plasma triglycerides ([5]; nicotinic acid 1,000 mg/kg diet, p<0.01) | decrease in atherosclerotic lesion size ([6]; nicotinic acid 1,000 mg/kg diet, relative to western diet alone) | decrease in aortic macrophage infiltration ([7]; nicotinic acid 1,000 mg/kg diet, % CD68 positive area) | effect on lifespan (C. elegans) | circulating level of nicotinic acid or nicotinamide riboside [8] | effect on plasma cholesterol esters [5, 11] | effect on plasma total cholesterol [5, 11] | effect on lesion (plaque) area [6, 12] | effect on aortic macrophage infiltration [7, 12] | therapeutic effect on these variables when administered alone (Sirt1 [9]) | therapeutic effect on these variables when administered alone (AMPK [10])
1 | O=C(O)c1cccnc1 [nicotinic acid] | did not have a significant effect | < 100 nM | no significant effect | < 100 nM | significant higher cutaneous vasodilation | significant higher cutaneous vasodilation and more complaints from the patients | 20% | 28% | 32% | ~50% | ~50% | no independent effect | about 10 μM |  |  |  |  |  | 
2 | NC(=O)c1ccc[n+]([C@@H]2O[C@H](CO)[C@@H](O)[C@H]2O)c1 [nicotinamide riboside] |  |  |  |  |  |  |  |  |  |  |  |  | about 10 μM |  |  |  |  |  | 
3 | CC(C)C[C@H](N)C(=O)O [leucine] |  |  |  |  |  |  |  |  |  |  |  | no independent effect |  | no independent effect | no independent effect | exerted an independent effect on plaque area | significant independent effect on reducing macrophage infiltration | no therapeutic effect | no therapeutic effect
